Reference: US9364479B2, “Use of a receptor-type kinase modulator for treating polycystic kidney disease” (SYMPHONY EVOLUTION, INC., priority 2010, dated 2016)
Like-named read-outs stand apart in the source and are kept apart here.

Experiments:
PCK rat = assay type: in vivo; conditions: for CT-CI / Creatinine / Kidney/Body weight: PN Day 90
From the text: The phenotype of the PCK rat is different from that of humans in that it has a slower disease progression and slower decline in renal function. The PCK rats came from a mutated colony of Sprague-Dawley rats from Fujita Health University and were housed at the Medical College of Wisconsin.
Two hours after last injection on PN90 the rats were sacrificed and the kidneys and liver were removed and weighed. Post-mortem measurements included KW/BW ratio and cystic index (CI) using renal sections from the cortex, medulla, and papilla. CT-CI was then determined from cystic index which was based on renal cyst size at 15 day intervals from PN0 to PN135. Renal function was assessed with BUN and creatinine levels from cardiac puncture.

EphB4 = target: T1, EphB4 (Homo sapiens, UniProt P54760); experiment: Mechanism of action study / Ki determination; assay type: biochemical
T1 construct: residues E605-E890 of human EphB4 containing a six histidine NH2-terminal tag; His6 (N); made in house; host or cells: baculovirus expression system
T1 sequence (P54760 605-890): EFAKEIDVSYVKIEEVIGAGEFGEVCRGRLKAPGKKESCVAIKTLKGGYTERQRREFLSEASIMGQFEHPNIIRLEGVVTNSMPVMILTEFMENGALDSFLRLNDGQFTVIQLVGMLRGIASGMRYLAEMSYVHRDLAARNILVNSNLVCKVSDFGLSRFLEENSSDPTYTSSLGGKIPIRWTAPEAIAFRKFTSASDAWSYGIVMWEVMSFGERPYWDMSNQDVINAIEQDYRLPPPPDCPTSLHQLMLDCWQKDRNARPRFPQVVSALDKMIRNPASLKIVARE
Experimental: Enzymatic activity was measured by standard methods after dilution of the enzyme-inhibitor complex. Activity was compared to a DMSO control treated under identical conditions.

[1] = test system: Adrenergic, Alpha 1, Non-selective; experiment: NovaScreen assay; assay type: binding
GABA A, Agonist Site = experiment: NovaScreen assay; assay type: binding
[2] = target: T2, Glutamate, NMDA, Glycine (Stry-insens Site) (Homo sapiens, UniProt Q05586); experiment: NovaScreen assay; assay type: binding; conditions: read-out: Inhibition, 10 μM XL-647
T2 construct: NovaScreen

Estrogen = experiment: NovaScreen assay; assay type: binding
EMK = target: T3, EMK (Homo sapiens, UniProt Q7KZI7); experiment: Chemiluminescent kinase assay; assay type: biochemical
T3 construct: His6 (N)
Experimental: (§1) Further screening was performed using the biochemical assay methods of Example 2. Additional description of the components and concentrations are summarized in Table 8, Table 9, and Table 10, below.

GSK3β = target: T4, GSK3β (Homo sapiens, UniProt P49841); experiment: Chemiluminescent kinase assay; assay type: biochemical
T4 construct: His6 (N); purchased Upstate Biotechnology
Experimental: as §1

MAP4K3 = target: T5, MAP4K3 (Homo sapiens, UniProt Q8IVH8); experiment: Chemiluminescent kinase assay; assay type: biochemical
T5 construct: Kinase domain,; His6 (N)
Experimental: as §1

KDR = KDR (Homo sapiens, UniProt P35968); experiment: Cellular autophosphorylation assay; assay type: cell-based
[3] = test system: HT-29 human tumor xenograft; experiment: HT-29 xenograft, tumor growth; assay type: in vivo; conditions: Mus musculus
Experimental: The response of tumors to treatment was determined by comparing the mean tumor weight of the treatment group with the appropriate control group. Percentage inhibition of tumor growth was determined with the following formula: Percentage inhibition=100×[1−(Xf−Xo)/(Yf−Yo)], where Xf and Yf are the mean tumor weights of the treatment and control groups, respectively, on day f, and Xo and Yo are the mean tumor weights of treatment and control groups respectively, on day zero (staged tumor weights after grouping)

[4] = Clinical safety data, 159 subjects with cancer; conditions: human, in vivo
Flt-4 = Flt-4 (Homo sapiens, UniProt P35916); experiment: AlphaScreen tyrosine kinase assay; assay type: biochemical; set-up: residues D725-R1298 of human Flt-4, Proqinase; purchased Proqinase; conditions: ATP at Km
Experimental: Dose-response experiments were done using 10 different inhibitor concentrations in 384-well microtiter plates. The ATP concentration used for each assay was equivalent to the Km for each kinase. IC50 values were calculated by nonlinear regression analysis using the four-variable equation: Y=min+(max−min)/[1+([I]/IC50)N], where Y is the observed signal, [I] is the inhibitor concentration, min is the background signal in the absence of enzyme (0% enzyme activity), max is the signal in the absence of inhibitor (100% enzyme activity), IC50 is the inhibitor concentration required at 50% enzyme inhibition, and N represents the empirical Hill slope as a measure of cooperativity.
An AlphaScreen tyrosine kinase assay was used to measure ErbB2 and Flt-4 activity. Donor beads coated with streptavidin and acceptor beads coated with PY100 anti-phosphotyrosine antibody (Perkin-Elmer) were used. Biotinylated poly(Glu,Tyr) 4:1 was used as the substrate. Substrate phosphorylation was measured by luminescence following donor-acceptor bead addition followed by complex formation. […] After 2 to 16 h of incubation at room temperature, plates were read using an AlphaQuest reader (Perkin-Elmer).

[5] = 7.5 mg/kg/day, PN Day 90, 7.5 mg/kg/day
[6] = 7.5 mg/kg/day, PN Day 90, listed as PRIM-001, 7.5 mg/kg/day
[7] = 15 mg/kg/day, PN Day 90, 15 mg/kg/day
[8] = 15 mg/kg/day, PN Day 90, listed as PRIM-001, 15 mg/kg/day

T5 sequence (Q8IVH8 16-273 limits assumed, species assumed): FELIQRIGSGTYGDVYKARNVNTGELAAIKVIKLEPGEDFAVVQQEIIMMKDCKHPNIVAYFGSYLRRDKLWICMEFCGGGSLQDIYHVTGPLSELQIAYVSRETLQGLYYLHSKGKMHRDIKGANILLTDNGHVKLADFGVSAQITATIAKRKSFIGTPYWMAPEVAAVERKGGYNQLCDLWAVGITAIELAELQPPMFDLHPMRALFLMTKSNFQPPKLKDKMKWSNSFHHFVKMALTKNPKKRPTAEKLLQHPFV
Sequence of Flt-4 (P35916 725-1298 isoform P35916-1): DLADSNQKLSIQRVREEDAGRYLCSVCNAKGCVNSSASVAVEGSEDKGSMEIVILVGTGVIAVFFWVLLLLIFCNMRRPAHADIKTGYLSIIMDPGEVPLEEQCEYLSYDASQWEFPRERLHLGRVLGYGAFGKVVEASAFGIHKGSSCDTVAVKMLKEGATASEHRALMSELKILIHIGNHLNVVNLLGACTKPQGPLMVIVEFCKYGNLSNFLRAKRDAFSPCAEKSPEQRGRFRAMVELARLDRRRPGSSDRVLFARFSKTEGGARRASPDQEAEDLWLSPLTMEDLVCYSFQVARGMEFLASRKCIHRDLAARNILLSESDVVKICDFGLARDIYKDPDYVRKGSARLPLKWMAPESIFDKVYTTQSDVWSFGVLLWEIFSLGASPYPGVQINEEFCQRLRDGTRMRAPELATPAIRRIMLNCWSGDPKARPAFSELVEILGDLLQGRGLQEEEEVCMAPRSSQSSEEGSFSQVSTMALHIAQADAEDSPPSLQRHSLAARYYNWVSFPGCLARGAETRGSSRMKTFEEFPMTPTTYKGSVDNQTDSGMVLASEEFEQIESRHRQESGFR
Sequence of KDR (P35968 20-1356, species assumed): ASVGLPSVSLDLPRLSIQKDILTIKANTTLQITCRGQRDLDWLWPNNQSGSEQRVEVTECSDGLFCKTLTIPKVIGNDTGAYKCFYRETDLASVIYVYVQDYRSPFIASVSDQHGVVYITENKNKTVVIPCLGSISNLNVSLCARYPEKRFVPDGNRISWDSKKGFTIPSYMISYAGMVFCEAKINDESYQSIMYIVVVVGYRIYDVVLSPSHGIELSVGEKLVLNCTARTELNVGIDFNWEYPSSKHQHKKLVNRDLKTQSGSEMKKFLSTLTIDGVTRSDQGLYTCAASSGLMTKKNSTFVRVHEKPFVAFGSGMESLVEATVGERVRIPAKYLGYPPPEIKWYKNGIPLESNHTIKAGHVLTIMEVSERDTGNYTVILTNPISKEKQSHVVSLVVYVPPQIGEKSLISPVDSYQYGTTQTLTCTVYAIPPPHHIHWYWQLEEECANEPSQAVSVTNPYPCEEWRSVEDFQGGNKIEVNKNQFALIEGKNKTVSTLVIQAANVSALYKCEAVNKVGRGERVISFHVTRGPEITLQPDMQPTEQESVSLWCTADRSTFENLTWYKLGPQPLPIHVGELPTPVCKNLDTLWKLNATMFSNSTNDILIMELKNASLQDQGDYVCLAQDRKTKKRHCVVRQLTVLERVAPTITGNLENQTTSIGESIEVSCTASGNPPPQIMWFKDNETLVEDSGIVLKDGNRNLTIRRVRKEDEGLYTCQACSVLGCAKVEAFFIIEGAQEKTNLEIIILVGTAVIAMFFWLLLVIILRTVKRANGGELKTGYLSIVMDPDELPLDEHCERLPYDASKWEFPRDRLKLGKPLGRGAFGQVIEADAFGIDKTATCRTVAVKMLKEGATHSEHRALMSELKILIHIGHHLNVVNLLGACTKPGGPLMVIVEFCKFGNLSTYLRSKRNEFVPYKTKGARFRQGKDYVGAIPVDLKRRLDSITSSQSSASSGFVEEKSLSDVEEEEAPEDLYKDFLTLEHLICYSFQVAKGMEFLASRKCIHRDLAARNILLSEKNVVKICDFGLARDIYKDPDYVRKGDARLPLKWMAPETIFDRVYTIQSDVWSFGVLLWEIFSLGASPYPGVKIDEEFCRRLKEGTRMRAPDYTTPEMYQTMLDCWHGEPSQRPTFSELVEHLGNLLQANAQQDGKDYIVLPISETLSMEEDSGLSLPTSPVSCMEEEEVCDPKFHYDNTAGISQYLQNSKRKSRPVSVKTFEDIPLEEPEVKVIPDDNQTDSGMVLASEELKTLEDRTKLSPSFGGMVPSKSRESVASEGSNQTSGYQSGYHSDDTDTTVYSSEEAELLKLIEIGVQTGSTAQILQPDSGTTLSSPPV
T3 sequence (Q7KZI7 whole entry): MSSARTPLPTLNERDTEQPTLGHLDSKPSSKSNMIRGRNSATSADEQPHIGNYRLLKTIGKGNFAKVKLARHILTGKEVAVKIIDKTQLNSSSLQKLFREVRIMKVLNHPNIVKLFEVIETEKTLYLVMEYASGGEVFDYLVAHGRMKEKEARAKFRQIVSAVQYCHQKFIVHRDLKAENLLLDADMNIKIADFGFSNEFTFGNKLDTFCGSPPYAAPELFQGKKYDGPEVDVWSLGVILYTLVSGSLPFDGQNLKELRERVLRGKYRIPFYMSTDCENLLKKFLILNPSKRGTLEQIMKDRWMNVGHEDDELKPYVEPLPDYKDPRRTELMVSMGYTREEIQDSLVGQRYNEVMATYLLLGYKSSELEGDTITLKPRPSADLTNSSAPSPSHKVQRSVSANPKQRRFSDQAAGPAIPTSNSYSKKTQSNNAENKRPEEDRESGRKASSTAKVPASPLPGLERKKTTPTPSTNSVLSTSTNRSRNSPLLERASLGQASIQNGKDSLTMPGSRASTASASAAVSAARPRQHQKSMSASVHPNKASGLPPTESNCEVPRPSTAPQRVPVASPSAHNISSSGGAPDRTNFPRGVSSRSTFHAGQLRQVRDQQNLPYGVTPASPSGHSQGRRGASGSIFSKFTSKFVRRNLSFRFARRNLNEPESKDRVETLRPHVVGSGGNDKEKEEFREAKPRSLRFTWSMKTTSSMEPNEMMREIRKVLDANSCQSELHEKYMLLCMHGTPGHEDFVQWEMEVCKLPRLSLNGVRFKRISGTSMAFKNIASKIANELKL
T4 sequence (P49841 whole entry): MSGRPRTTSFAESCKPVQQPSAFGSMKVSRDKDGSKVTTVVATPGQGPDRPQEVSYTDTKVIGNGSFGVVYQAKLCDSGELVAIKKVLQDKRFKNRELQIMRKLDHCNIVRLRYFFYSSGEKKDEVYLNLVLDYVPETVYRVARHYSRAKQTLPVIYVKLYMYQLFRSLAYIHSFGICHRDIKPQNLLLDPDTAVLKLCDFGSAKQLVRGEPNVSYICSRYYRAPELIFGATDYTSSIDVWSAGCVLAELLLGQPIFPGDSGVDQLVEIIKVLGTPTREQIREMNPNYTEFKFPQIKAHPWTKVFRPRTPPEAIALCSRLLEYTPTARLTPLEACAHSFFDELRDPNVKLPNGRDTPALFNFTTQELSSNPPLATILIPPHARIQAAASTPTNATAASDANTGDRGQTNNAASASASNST

COc1cc2c(Nc3ccc(Cl)c(Cl)c3F)ncnc2cc1OC[C@@H]1C[C@@H]2CN(C)C[C@@H]2C1 [XL-647, N-(3,4-dichloro-2-fluorophenyl)-7-({[(3aR,5r,6aS)-2-methyloctahydrocyclopenta[c]pyrrol-5-yl]methyl}oxy)-6-(methyloxy)quinazolin-4-amine]
decrease of BUN level (PCK rat; 7.5 mg/kg q.d.): 19.2%
decrease of kidney weight (PCK rat; 7.5 mg/kg q.d.): 13.4%
reduction of CT-CI (PCK rat; 7.5 mg/kg q.d.): 19.6%
CT-CI (PCK rat; 7.5 mg/kg/day): 5.63
Creatinine (PCK rat; 7.5 mg/kg/day): 0.48 ± 0.09 mg/dL
Kidney/Body weight (PCK rat; 7.5 mg/kg/day): 1.5%
BUN (PCK rat; [5]): 27.50 ± 3.74 mg/dL
Kidney Weight (PCK rat; [5]): 5.77 ± 0.47 g
BUN (PCK rat; [6]): 27.50 ± 3.74 mg/dL
Kidney Weight (PCK rat; [6]): 5.77 g
decrease of BUN level (PCK rat; 15 mg/kg q.d.): 28.8%
decrease of kidney weight (PCK rat; 15 mg/kg q.d.): 26.0%
reduction of CT-CI (PCK rat; 15 mg/kg q.d.): 35.7%
CT-CI (PCK rat; 15 mg/kg/day): 4.50
Creatinine (PCK rat; 15 mg/kg/day): 0.46 ± 0.07 mg/dL
Kidney/Body weight (PCK rat; 15 mg/kg/day): 1.31%
BUN (PCK rat; [7]): 24.25 ± 4.3 mg/dL
Kidney Weight (PCK rat; [7]): 4.93 ± 0.42 g
BUN (PCK rat; [8]): 24.25 ± 4.30 mg/dL
Kidney Weight (PCK rat; [8]): 4.93 g
ATP-Competitive (EphB4): Yes
Ki (EphB4): 0.001 µM
Reversible (EphB4): Yes
Inhibition, 10 μM XL-647 [1]: 49.40%
Inhibition, 10 μM XL-647 (GABA A, Agonist Site): 1.07%
inhibition at 10 µM [2]: 6.46%
Inhibition, 10 μM XL-647 (Estrogen): 15.75%
IC50 (EMK): > 10 µM
IC50 (GSK3β): > 1 µM
IC50 (MAP4K3): > 1 µM
IC50 (KDR): 0.137 µM
ED50 ([3]; HT-29, qd × 14): 20.2 mg/kg
ED50 ([3]; HT-29, qd × 28): 16 mg/kg
deaths attributed to study drug [4]: no deaths attributed to study drug
IC50 (Flt-4): 0.0087 ± 0.0006 µM
